Publication PMC8617627, “Novel DYRK1A Inhibitor Rescues Learning and Memory Deficits in a Mouse Model of Down Syndrome” (Pharmaceuticals, 2021)
Read-outs that look alike come from different tables or passages of the source.

Experiments:
Assay in all cases: Kinase profile (33P ATP filter binding)
Type in all cases: biochemical
GCK = biological target: T1, GCK (Homo sapiens, UniProt Q12851); conditions: read-out: Remaining protein kinase activity
T1 sequence (Q12851 1-820): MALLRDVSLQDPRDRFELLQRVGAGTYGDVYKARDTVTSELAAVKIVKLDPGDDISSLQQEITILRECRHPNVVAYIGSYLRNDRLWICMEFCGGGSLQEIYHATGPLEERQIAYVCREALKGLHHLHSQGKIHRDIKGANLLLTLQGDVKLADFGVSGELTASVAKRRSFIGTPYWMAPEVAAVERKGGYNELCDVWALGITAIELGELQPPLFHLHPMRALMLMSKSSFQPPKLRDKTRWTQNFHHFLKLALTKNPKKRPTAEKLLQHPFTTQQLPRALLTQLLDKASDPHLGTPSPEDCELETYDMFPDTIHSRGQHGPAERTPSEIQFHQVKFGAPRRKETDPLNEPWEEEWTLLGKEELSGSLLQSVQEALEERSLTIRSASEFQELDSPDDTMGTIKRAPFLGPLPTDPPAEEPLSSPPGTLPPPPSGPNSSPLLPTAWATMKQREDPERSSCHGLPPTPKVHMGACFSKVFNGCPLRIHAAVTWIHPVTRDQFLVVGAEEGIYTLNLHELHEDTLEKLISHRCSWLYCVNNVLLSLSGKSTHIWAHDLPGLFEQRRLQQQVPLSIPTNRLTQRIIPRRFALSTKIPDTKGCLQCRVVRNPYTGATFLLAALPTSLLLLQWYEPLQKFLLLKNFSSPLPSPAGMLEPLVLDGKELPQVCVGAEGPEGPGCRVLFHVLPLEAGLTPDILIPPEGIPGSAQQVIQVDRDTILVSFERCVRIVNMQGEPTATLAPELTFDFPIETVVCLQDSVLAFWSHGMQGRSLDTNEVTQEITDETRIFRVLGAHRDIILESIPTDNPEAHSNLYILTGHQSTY

SIK3 = SIK3 (Homo sapiens, UniProt Q9Y2K2)
Chain of SIK3 (Q9Y2K2 whole entry): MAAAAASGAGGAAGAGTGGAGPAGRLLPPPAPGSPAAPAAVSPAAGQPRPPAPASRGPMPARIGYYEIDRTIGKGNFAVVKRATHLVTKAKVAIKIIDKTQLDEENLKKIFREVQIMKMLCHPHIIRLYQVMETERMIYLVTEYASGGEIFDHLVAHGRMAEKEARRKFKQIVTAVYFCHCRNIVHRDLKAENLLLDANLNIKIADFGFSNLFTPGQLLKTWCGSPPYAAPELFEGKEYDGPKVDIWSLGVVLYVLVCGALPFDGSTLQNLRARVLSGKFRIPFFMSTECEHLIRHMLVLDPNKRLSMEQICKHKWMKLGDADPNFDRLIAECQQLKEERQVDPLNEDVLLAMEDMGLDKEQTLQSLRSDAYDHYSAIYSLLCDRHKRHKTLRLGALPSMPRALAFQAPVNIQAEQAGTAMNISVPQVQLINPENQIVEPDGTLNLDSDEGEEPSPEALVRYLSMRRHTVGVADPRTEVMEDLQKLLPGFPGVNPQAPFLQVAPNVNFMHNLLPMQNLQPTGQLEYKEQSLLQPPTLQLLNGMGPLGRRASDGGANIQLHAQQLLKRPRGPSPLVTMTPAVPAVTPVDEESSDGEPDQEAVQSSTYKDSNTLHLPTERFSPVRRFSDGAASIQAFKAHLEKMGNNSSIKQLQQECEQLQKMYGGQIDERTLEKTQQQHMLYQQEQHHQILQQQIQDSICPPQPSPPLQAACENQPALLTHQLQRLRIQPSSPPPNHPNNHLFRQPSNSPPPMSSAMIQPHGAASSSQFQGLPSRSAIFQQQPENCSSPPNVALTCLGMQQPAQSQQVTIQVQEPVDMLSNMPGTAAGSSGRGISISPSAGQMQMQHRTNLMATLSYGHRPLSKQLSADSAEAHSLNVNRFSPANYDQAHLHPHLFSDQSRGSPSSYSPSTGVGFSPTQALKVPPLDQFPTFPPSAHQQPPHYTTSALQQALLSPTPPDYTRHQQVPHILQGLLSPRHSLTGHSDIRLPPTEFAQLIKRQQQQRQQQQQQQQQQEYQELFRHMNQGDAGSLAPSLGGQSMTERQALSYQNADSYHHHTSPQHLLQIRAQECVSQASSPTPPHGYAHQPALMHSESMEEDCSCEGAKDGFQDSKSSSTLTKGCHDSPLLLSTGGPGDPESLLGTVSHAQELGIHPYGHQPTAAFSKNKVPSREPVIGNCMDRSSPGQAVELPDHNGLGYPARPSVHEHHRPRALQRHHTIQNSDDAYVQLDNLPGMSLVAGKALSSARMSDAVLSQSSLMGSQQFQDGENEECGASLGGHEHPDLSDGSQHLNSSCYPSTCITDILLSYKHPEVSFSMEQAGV

IR = IR (Homo sapiens, UniProt P06213); conditions: read-out: Remaining protein kinase activity
Chain of IR (P06213 28-1382): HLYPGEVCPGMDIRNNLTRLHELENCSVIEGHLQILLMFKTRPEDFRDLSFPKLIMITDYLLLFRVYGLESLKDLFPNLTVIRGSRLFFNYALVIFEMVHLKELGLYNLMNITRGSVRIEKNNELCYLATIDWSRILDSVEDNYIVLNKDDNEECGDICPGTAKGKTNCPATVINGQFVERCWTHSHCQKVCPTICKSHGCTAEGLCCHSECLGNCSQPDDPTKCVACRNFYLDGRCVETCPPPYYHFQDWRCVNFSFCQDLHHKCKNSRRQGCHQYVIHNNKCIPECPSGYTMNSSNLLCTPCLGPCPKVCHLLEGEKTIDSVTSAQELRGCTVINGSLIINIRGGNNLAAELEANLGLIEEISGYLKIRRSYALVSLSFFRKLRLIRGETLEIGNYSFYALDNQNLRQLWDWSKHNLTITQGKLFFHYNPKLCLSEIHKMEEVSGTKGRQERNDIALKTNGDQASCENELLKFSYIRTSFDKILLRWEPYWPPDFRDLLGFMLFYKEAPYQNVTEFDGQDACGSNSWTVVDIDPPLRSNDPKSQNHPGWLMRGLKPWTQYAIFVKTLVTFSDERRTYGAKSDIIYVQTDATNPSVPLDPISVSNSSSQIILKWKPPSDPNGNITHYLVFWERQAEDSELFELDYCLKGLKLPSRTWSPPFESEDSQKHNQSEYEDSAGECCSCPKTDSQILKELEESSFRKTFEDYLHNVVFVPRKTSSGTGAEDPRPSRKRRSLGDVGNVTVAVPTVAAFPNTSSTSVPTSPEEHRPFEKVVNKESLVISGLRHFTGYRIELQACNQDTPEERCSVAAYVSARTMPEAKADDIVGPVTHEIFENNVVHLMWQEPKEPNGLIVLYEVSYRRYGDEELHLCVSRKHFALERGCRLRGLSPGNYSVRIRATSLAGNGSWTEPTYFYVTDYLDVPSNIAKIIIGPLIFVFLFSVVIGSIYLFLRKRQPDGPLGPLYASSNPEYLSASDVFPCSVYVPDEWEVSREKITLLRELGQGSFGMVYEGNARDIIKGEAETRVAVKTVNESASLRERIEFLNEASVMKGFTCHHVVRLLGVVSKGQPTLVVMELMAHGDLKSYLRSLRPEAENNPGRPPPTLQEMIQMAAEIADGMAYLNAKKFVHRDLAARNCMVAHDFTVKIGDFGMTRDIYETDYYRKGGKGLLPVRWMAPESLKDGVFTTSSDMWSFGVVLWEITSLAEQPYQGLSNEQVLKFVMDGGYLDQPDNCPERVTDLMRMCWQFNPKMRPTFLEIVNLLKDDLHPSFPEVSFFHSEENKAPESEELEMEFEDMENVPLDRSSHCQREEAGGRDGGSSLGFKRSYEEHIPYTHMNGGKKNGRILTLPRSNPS

MAP4K3 = biological target: T2, MAP4K3 (Homo sapiens, UniProt Q8IVH8)
T2 sequence (Q8IVH8 1-894): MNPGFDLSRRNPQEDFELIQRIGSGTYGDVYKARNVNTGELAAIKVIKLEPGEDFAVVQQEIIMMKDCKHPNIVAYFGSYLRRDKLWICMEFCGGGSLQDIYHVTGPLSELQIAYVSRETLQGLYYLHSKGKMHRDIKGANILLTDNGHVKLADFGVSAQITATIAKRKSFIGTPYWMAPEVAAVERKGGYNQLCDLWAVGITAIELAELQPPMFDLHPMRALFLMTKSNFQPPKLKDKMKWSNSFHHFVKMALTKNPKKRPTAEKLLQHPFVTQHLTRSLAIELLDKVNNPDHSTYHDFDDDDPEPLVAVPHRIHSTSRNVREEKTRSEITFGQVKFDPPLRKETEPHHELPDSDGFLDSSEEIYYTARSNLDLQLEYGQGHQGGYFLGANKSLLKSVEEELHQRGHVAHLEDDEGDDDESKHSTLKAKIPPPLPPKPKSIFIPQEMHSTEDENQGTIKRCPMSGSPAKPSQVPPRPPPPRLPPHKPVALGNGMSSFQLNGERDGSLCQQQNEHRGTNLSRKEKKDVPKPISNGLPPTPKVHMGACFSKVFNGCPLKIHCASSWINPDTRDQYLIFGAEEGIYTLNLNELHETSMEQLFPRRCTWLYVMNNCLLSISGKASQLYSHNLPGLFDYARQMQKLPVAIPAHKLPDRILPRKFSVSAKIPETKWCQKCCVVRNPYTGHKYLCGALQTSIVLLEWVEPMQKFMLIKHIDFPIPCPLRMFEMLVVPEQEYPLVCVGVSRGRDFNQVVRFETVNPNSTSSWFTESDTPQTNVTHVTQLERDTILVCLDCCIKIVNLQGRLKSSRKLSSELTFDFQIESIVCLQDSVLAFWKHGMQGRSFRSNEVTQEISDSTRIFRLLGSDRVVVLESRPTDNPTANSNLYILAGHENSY

CK1δ = CK1δ (Homo sapiens, UniProt P48730); conditions: read-out: Remaining protein kinase activity
Chain of CK1δ (P48730 whole entry): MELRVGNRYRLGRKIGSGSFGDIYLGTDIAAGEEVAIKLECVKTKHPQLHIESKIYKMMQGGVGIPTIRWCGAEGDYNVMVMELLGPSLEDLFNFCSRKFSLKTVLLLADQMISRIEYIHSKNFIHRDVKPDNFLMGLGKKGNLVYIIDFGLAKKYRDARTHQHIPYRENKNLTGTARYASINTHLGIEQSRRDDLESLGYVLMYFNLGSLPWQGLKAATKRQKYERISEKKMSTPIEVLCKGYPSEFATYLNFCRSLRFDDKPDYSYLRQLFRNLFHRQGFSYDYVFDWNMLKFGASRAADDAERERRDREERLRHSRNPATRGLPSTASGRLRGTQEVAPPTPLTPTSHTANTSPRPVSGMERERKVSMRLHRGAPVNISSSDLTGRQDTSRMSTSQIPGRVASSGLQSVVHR

YES1 = YES1 (Homo sapiens, UniProt P07947); conditions: read-out: Remaining protein kinase activity
Chain of YES1 (P07947 whole entry): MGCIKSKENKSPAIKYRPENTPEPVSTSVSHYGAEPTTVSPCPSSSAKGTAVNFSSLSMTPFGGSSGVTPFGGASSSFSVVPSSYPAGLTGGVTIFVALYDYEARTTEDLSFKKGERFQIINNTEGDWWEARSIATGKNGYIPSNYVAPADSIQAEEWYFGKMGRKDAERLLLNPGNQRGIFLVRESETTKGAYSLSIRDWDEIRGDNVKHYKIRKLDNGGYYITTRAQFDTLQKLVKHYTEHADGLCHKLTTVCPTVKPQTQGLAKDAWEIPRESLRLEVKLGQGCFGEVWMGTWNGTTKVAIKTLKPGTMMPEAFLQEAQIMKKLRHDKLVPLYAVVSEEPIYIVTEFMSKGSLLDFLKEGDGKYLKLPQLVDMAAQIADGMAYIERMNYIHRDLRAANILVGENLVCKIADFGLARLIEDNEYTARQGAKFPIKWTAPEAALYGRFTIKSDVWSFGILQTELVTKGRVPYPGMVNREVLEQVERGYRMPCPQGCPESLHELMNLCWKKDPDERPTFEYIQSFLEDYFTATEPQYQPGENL

IRAK4 = biological target: T3, IRAK4 (Homo sapiens, UniProt Q9NWZ3)
T3 sequence (Q9NWZ3 1-460): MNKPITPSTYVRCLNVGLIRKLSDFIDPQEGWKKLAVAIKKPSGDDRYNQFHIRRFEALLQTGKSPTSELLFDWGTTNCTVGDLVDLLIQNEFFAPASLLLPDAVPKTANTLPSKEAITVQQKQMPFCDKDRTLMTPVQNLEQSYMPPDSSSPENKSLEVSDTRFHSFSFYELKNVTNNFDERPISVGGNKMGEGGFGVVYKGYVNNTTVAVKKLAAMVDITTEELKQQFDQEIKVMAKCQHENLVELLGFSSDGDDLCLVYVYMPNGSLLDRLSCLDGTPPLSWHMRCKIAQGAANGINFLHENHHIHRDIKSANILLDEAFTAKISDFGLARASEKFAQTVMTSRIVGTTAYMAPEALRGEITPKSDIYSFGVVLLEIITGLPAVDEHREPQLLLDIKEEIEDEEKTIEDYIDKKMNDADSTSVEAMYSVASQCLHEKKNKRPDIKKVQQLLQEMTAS

PKA = PKA (Homo sapiens, UniProt P17612); conditions: read-out: Remaining protein kinase activity

SMILES: COc1ccc2sc(-c3cncc(NC(C)=O)c3)nc2c1 [PST-001, N-(5-(5-Methoxybenzo[d]thiazol-2-yl)pyridin-3-yl)acetamide]
- remaining activity at 1 µM (GCK): 118%
- remaining activity at 100 µM (GCK): 123%
- Remaining protein kinase activity (SIK3; 1 μM): 114%
- Remaining protein kinase activity (SIK3; 100 μM): 78%
- remaining activity at 1 µM (IR): 116%
- remaining activity at 100 µM (IR): 120%
- Remaining protein kinase activity (MAP4K3; 1 μM): 111%
- Remaining protein kinase activity (MAP4K3; 100 μM): 94%
- remaining activity at 1 µM (CK1δ): 99%
- remaining activity at 100 µM (CK1δ): 59%
- remaining activity at 1 µM (YES1): 130%
- remaining activity at 100 µM (YES1): 128%
- Remaining protein kinase activity (IRAK4; 1 μM): 88%
- Remaining protein kinase activity (IRAK4; 100 μM): 32%
- remaining activity at 1 µM (PKA): 88%
- remaining activity at 100 µM (PKA): 88%

SMILES: COc1ccc2sc(-c3cncc(N)c3)nc2c1 [compound 1, 5-(5-Methoxybenzo[d]thiazol-2-yl)pyridin-3-amine]
- remaining activity at 1 µM (GCK; GCK, 1 μM): 105%
- remaining activity at 100 µM (GCK; GCK, 100 μM): 28%
- Remaining protein kinase activity (SIK3; 1 μM): 106%
- Remaining protein kinase activity (SIK3; 100 μM): 19%
- remaining activity at 1 µM (IR; IR, 1 μM): 108%
- remaining activity at 100 µM (IR; IR, 100 μM): 45%
- Remaining protein kinase activity (MAP4K3; 1 μM): 98%
- Remaining protein kinase activity (MAP4K3; 100 μM): 22%
- remaining activity at 1 µM (CK1δ; CK1δ, 1 μM): 107%
- remaining activity at 100 µM (CK1δ; CK1δ, 100 μM): 13%
- remaining activity at 1 µM (YES1; YES1, 1 μM): 122%
- remaining activity at 100 µM (YES1; YES1, 100 μM): 58%
- Remaining protein kinase activity (IRAK4; 1 μM): 85%
- Remaining protein kinase activity (IRAK4; 100 μM): 18%
- remaining activity at 1 µM (PKA; PKA, 1 μM): 98%
- remaining activity at 100 µM (PKA; PKA, 100 μM): 74%
